Experimental data: US10219516B2, “Molecules having pesticidal utility, and intermediates, compositions, and processes, related thereto” (priority 2015, dated 2019)
Where two headings read alike, the source gives them in different places.

Columns and labels:
Assay type in all cases: in vivo
[1] = tested on: Yellow Fever Mosquito (Aedes aegypti, AEDSAE); assay: Bioassay on Yellow Fever Mosquito (YFM), 96-well plate larval assay; details: for YFM (Biological Results, rating): Species YFM (Yellow Fever Mosquito); for YFM rating: Yellow Fever Mosquito, 96-well plate larval assay
Summary of the method: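 Aedes aegypti larvae (about 1 day old) in liver-powder water were added to plates dispensed from DMSO master plates (4000 ppm stock) diluted with 90:10 water/acetone; six replicate plates per master. Lidded plates were held at room temperature for 3 days, then each well was scored for mortality.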

[2] = tested on: Beet Armyworm (Spodoptera exigua, LAPHEG); assay: Bioassay on Beet Armyworm (BAW), 128-well diet tray assay
Summary of the method: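 Test molecule dissolved in acetone-water 90:10 is applied at 50 μg/cm^2 onto artificial diet and allowed to dry. Second instar larvae, one to five per well, are then added, and trays are vented and kept at 25° C. for five to seven days before mortality is scored.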

[3] = tested on: Cabbage Looper (Trichoplusia ni, TRIPNI); assay: Bioassay on Cabbage Looper (CL), 128-well diet tray assay; details: Trichoplusia ni
Summary of the method: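 Diet-incorporation-free surface assay: 50 μg/cm^2 compound in acetone-water (90:10), dried on diet; 1–5 2nd-instar larvae/well; 8 wells; vented cover; 25° C., 14:10 L:D, 5–7 d; % mortality averaged over wells.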

[4] = Species BAW (Beet Armyworm), read-out: BAW (Biological Results, rating)
[5] = Species CL (Cabbage Looper), read-out: CL (Biological Results, rating)
[6] = Beet Armyworm, 128-well diet tray assay, read-out: BAW rating
[7] = Cabbage Looper, 128-well diet tray assay, read-out: CL rating

Row | SMILES | YFM (Biological Results, rating) [1] | pest or weed control at 50 µg/cm2 [2, 4] [%] | pest or weed control at 50 µg/cm2 [3, 5] [%] | YFM rating [1] | pest or weed control at 50 µg/cm2 [2, 6] [%] | pest or weed control at 50 µg/cm2 [3, 7] [%]
1 | O=C(Nc1ccccc1)c1cc(NC(=O)[C@H]2[C@H](c3cc(Cl)cc(Cl)c3)C2(Cl)Cl)cc(Cl)c1Cl (relative stereo) [F246, trans-2,3-Dichloro-5-(2,2-dichloro-3-(3,5-dichlorophenyl)cyclopropane-1-carboxamido)-N-phenylbenzamide] | A (80-100) | 50 to 100 | 50 to 100 |  |  | 
2 | COc1c(F)cc([C@H]2[C@H](C(=O)Nc3ccc(Cl)c(C(=O)Nc4ccc(F)cc4F)c3)C2(Cl)Cl)cc1Br (relative stereo) [F543, 5-(trans-3-(3-Bromo-5-fluoro-4-methoxyphenyl)-2,2-dichlorocyclopropane-1-carboxamido)-2-chloro-N-(2,4-difluorophenyl)benzamide] |  |  |  | A (80-100) | 50 to 100 | 50 to 100
3 | CN(C(=O)c1cc(NC(=O)[C@H]2[C@H](c3ccc(Cl)c(C(F)F)c3)C2(Cl)Cl)ccc1Cl)c1ccc(F)cc1 (relative stereo) [F593, 2-Chloro-5-(trans-2,2-dichloro-3-(4-chloro-3-(difluoromethyl)phenyl)cyclopropane-1-carboxamido)-N-(4-fluorophenyl)-N-methylbenzamide] |  |  |  | A (80-100) | 50 to 100 | 50 to 100
4 | Cc1cc(NC(=O)c2cc(NC(=O)[C@H]3[C@H](c4cc(Cl)cc(Cl)c4)C3(Cl)Cl)ccc2Cl)ncc1F (relative stereo) [F297, trans-2-Chloro-5-(2,2-dichloro-3-(3,5-dichlorophenyl)cyclopropane-1-carboxamido)-N-(5-fluoro-4-methylpyridin-2-yl)benzamide] | A (80-100) | 50 to 100 | 50 to 100 |  |  | 
5 | CNc1ccc(NC(=O)c2cc(NC(=O)[C@H]3[C@H](c4cc(Cl)cc(Cl)c4)C3(Cl)Cl)ccc2Cl)c(C#N)c1 (relative stereo) [F237, trans-2-chloro-N-(2-cyano-4-(methylamino)phenyl)-5-(2,2-dichloro-3-(3,5-dichlorophenyl)cyclopropane-1-carboxamido)benzamide] | A (80-100) | 50 to 100 | 50 to 100 |  |  | 
6 | O=C(Nc1ccc(Cl)c(F)c1)c1cc(NC(=O)C2C(c3cc(Cl)cc(Cl)c3)C2(Cl)Cl)ccc1Cl (stereo not drawn) [PF123, 2-Chloro-N-(4-chloro-3-fluorophenyl)-5-(trans)-2,2-dichloro-3-(3,5-dichlorophenyl)cyclopropane-1-carboxamido)benzamide] |  |  |  | A (80-100) | 50 to 100 | 50 to 100
7 | COC(=O)Nc1ccc(NC(=O)c2cc(NC(=O)[C@H]3[C@H](c4cc(Cl)cc(Cl)c4)C3(Cl)Cl)ccc2Cl)cc1 (relative stereo) [PF110, trans-methyl (4-(2-chloro-5-(2,2-dichloro-3-(3,5-dichlorophenyl)cyclopropane-1-carboxamido)benzamido)phenyl)carbamate] |  |  |  | B (More than 0-Less than 80) | 50 to 100 | 50 to 100
8 | O=C(Nc1ccc(F)cc1F)c1cc(NC(=O)C2C(c3cc(Cl)cc(Cl)c3)[C@H]2Cl)ccc1Cl (stereo partly drawn) [F215, 2-Chloro-5-((2R)-2-chloro-3-(3,5-dichlorophenyl)cyclopropane-1-carboxamido)-N-(2,4-difluorophenyl)benzamide] | B (More than 0-Less than 80) | 50 to 100 | 50 to 100 |  |  | 
9 | CN(C(=O)c1cc(NC(=O)[C@H]2[C@H](c3ccc(C(F)F)c(Cl)c3)C2(Cl)Cl)ccc1Cl)c1ccc(F)cc1 (relative stereo) [F596, 2-Chloro-5-(trans-2,2-dichloro-3-(3-chloro-4-(difluoromethyl)phenyl)cyclopropane-1-carboxamido)-N-(4-fluorophenyl)-N-methylbenzamide] |  |  |  | A (80-100) | 50 to 100 | 50 to 100
10 | O=C(Nc1ccc(F)cc1F)c1cc(NC(=O)[C@H]2[C@H](c3cc(Cl)c(Cl)c(Cl)c3)C2(Cl)Cl)ccc1Cl [F281, 2-Chloro-5-((1R,3R)-2,2-dichloro-3-(3,4,5-trichlorophenyl)cyclopropane-1-carboxamido)-N-(2,4-difluorophenyl)benzamide] | A (80-100) | 50 to 100 | 50 to 100 |  |  | 
11 | Nc1ccc(F)cc1NC(=O)c1cc(NC(=O)[C@H]2[C@H](c3cc(Cl)c(Cl)c(Cl)c3)C2(Cl)Cl)ccc1Cl [F405, N-(2-Amino-5-fluorophenyl)-2-chloro-5-((1R,3R)-2,2-dichloro-3-(3,4,5-trichlorophenyl)cyclopropane-1-carboxamido)benzamide] |  |  |  | A (80-100) | 50 to 100 | 50 to 100
12 | CN(C(=O)c1cc(NC(=O)[C@H]2[C@H](c3cc(Cl)cc(C(F)(F)F)c3)C2(Cl)Cl)ccc1Cl)c1ccc(F)cc1 (relative stereo) [F88, trans-2-Chloro-5-(2,2-dichloro-3-(3-chloro-5-(trifluoromethyl)phenyl)cyclopropane-1-carboxamido)-N-(4-fluorophenyl)-N-methylbenzamide] | B (More than 0-Less than 80) | 50 to 100 | 50 to 100 |  |  | 
13 | O=C(Nc1ccc(F)cc1)c1cc(NC(=O)C2C(c3cc(Cl)cc(Cl)c3)[C@H]2Cl)ccc1Cl (stereo partly drawn) [F213, 2-Chloro-5-((2R)-2-chloro-3-(3,5-dichlorophenyl)cyclopropane-1-carboxamido)-N-(4-fluorophenyl)benzamide] | A (80-100) | 50 to 100 | 50 to 100 |  |  | 
14 | CN1Cc2ccc(NC(=O)c3cc(NC(=O)C4C(c5cc(Cl)cc(Cl)c5)C4(Cl)Cl)ccc3Cl)cc2C1 (stereo not drawn) [F498, 2-Chloro-5-(trans)-2,2-dichloro-3-(3,5-dichlorophenyl)cyclopropane-1-carboxamido)-N-(2-methylisoindolin-5-yl)benzamide] |  |  |  | A (80-100) | 50 to 100 | 50 to 100
15 | O=C(Nc1ccc(F)cc1)c1cc(NC(=O)C2C(c3cc(Cl)cc(Cl)c3)C2(F)Br)ccc1Cl (stereo not drawn) [PF51, 5-(trans)-2-Bromo-3-(3,5-dichlorophenyl)-2-fluorocyclopropane-1-carboxamido)-2-chloro-N-(4-fluorophenyl)benzamide] |  |  |  | B (More than 0-Less than 80) | 50 to 100 | 50 to 100
16 | CC(=O)Nc1ccc(NC(=O)c2cc(NC(=O)[C@H]3[C@H](c4cc(Cl)cc(Cl)c4)C3(Cl)Cl)ccc2Cl)c(F)c1 (relative stereo) [PF40, trans-N-(4-Acetamido-2-fluorophenyl)-2-chloro-5-(2,2-dichloro-3-(3,5-dichlorophenyl)cyclopropane-1-carboxamido)benzamide] |  |  |  | A (80-100) | 50 to 100 | 50 to 100
17 | Cn1nc(NC(=O)c2cc(NC(=O)C3C(c4cc(Cl)cc(Cl)c4)C3(Cl)Cl)ccc2Cl)c2c(F)cccc21 (stereo not drawn) [F449, 2-Chloro-5-(trans)-2,2-dichloro-3-(3,5-dichlorophenyl)cyclopropane-1-carboxamido)-N-(4-fluoro-1-methyl-1H-indazol-3-yl)benzamide] |  |  |  | A (80-100) | 50 to 100 | 50 to 100
18 | O=C(Nc1ccc(F)cc1F)c1cc(NC(=O)[C@@H]2[C@@H](c3ccc(Cl)c(Cl)c3)C2(Cl)Cl)ccc1Cl [F210, 2-Chloro-5-((1S,3S)-2,2-dichloro-3-(3,4-dichlorophenyl)cyclopropane-1-carboxamido)-N-(2,4-difluorophenyl)benzamide] | A (80-100) | 50 to 100 | 50 to 100 |  |  | 
19 | O=C(Nc1ccc(-n2cccn2)cc1)c1cc(NC(=O)[C@H]2[C@H](c3cc(Cl)cc(Cl)c3)C2(Cl)Cl)ccc1Cl (relative stereo) [F440, trans-N-(4-(1H-Pyrazol-1-yl)phenyl)-2-chloro-5-(2,2-dichloro-3-(3,5-dichlorophenyl)cyclopropanecarboxamido)benzamide] |  |  |  | A (80-100) | 50 to 100 | 50 to 100
20 | Cc1cc(N)ccc1NC(=O)c1cc(NC(=O)[C@H]2[C@H](c3cc(Cl)c(Cl)c(Cl)c3)C2(Cl)Cl)ccc1Cl [F286, N-(4-Amino-2-methylphenyl)-2-chloro-5-((1R,3R)-2,2-dichloro-3-(3,4,5-trichlorophenyl)cyclopropane-1-carboxamido)benzamide] | A (80-100) | 50 to 100 | 50 to 100 |  |  | 
21 | Nc1cc(F)cc(NC(=O)c2cc(NC(=O)[C@H]3[C@H](c4ccc(F)c(Cl)c4)C3(Cl)Cl)ccc2Cl)c1 [F433, N-(3-Amino-5-fluorophenyl)-2-chloro-5-((1R,3R)-2,2-dichloro-3-(3-chloro-4-fluorophenyl)cyclopropane-1-carboxamido)benzamide] |  |  |  | A (80-100) | 50 to 100 | 50 to 100
